Data as given in patent US5075336A, “Alkaline earth metal salts of oxa polyacid compounds” (Adir et Compagnie, priority 1990, dated 1991).
Where two headings read alike, the source gives them in different places.

Columns and labels:
[1] = Bioavailability (Sr2+ by atomic absorption spectrometry); details: rat, in vivo, po, 50 mg/kg; male wistar rats, 50 mg Sr2+ per kg, gelatin mini capsules; compared with strontium chloride; read-out: Absolute bioavailability
Method: the determination was carried out on groups of 5 male wistar rats
administration is in a dose of 50 mg of Sr^2+ per kg in the form of gelatin mini capsules,
the determination was carried out by atomic absorption spectrometry using flame ionisation for the concentrations higher than 1 μg/ml and furnace ionisation for the concentrations lower than 1 μg/ml

[2] = system: Demi-calvarias of newly born mice; assay: Osseous formation in tissue culture: incorporation of tritiated proline (T/C ratio); assay type: cell-based; details: 48 h, n = 7
Method: (§1) The activity on osseous formation and the anti-resorbing activity of compounds potentially active as medicaments may be detected and measured in vitro in tissue culture.
Demi-calvarias of newly born mice (1-2 days) are cultured on gratings in BGJ medium containing tritiated proline. The explants are cultured for 48 h in the presence of the tested compound at 37° C. and at the end of the culture the bones are washed in trichloroacetic acid containing non-radioactive proline in order to remove the ^3 H-proline which has not been incorporated.
After washing and dissolving in sodium hydroxide solution, the incorporation of the labler in the bone and the amount of total proteins are counted. The effect of the product on the incorporation of proline in the bone in culture is thus evaluated.
Each treated demi-calvaria is compared with the untreated demi-calvaria which serves as control and the T/C ratio is calculated. [formula]
A stimulation of the osseous formation is reflected by a higher incorporation of tritiated proline in the treated demi-calvaria than in the control (T/C>1). An inhibition of the osseous formation is shown by a T/C ratio of <1.
The compounds were tested at concentrations of 10^-4, 10^-6, 10^-8, 10^-10 and 10^-12 M.
6 to 9 experiments were carried out per point.

[3] = system: forearms of rat foetuses (PTH-stimulated osseous resorption); assay: Osseous resorption in tissue culture: 45Ca salted out from PTH-stimulated foetal forearm bones; assay type: cell-based, rats
Method: as §1
18-day pregnant rats are injected with 150 μcuries of ^45 Ca subcutaneously.
On the 19th day the rats are sacrificed and the foetuses are removed, immersed in a bath of alcohol at 70° are then two baths of PBS and killed by cutting off the head. The two forearms are dissected, the skin, the tendons and the muscles are removed and the cartilaginous extremities are cut off. The forearms are cultured in 24-well culture boxes in the presence of 1.5 ml of MEM for 24 hours for equilibration. At the end of said 24 hours, the medium is replaced by 1.5 ml of BGJB supplemented with 10% of foetal calf serum. The resorption is stimulated in all of the samples by […] of PTH. The bones are cultured for two successive periods of 72 hours each and the culture media are removed to determine the amount of ^45 Ca salted out at the end of each of these two periods. At the end of the second period (7 days after the start of culture), the bones are immersed for 24 hours in 1.5 ml of 10% formic acid and the ^45 Ca salted out from the bones is also determined in a scintillation counter.
The results are expressed for each of the two culture periods by the treated/control ratio calculated in the following way: [formula]
The compounds were tested on this model at concentrations of 5×10^-3 and 5×10^-4 M.

[4] = PTH alone (reference of the ratio)

**Q.** Which results are given for `CCOC(OC(CO)C(=O)O)C(=O)O` (stereo not drawn) [Example 1, Strontium 2-ethoxy-4-hydroxymethyl-3-oxa pentanedioate]?
**A.** bioavailability [1]: 60.5%; Osseous formation, T/C ratio, maximum value ([2]; 10^-4 M): 1.8034; Osseous formation, T/C ratio, minimum value ([2]; 10^-4 M): 1.2095; Osseous formation, T/C ratio, maximum value ([2]; 10^-6 M): 1.4652; Osseous formation, T/C ratio, minimum value ([2]; 10^-6 M): 0.8433; Osseous formation, T/C ratio, maximum value ([2]; 10^-8 M): 1.2092; Osseous formation, T/C ratio, minimum value ([2]; 10^-8 M): 0.8511; Osseous formation, T/C ratio, maximum value ([2]; 10^-10 M): 1.0974; Osseous formation, T/C ratio, minimum value ([2]; 10^-10 M): 0.8467; Osseous formation, T/C ratio, maximum value ([2]; 10^-12 M): 1.2822; Osseous formation, T/C ratio, minimum value ([2]; 10^-12 M): 0.8988; activity at 100 µM ([2]; Mus musculus, 10^-4 M, 37° C., marked **): 150%; activity at 1 µM ([2]; Mus musculus, 10^-6 M, 37° C.): 107%; activity at 0.01 µM ([2]; Mus musculus, 10^-8 M, 37° C.): 103%; activity at 0.0001 µM ([2]; Mus musculus, 10^-10 M, 37° C.): 97.2%; activity at 1 pM ([2]; Mus musculus, 10^-12 M, 37° C.): 106%; Level of osseous resorption (%), D1-D4 ([3]; 5 10^-3 (M), PTH-stimulated, 9 determinations per point, (c) different from PTH at p < 0.05): 6.4 ± 0.9%; Level of osseous resorption (%), D1-D4 ([3]; 5 10^-4 (M), PTH-stimulated, 9 determinations per point): 14.5 ± 4.1%; activity at 5000 µM ([3]; Rattus norvegicus, 5 10^-3 (M), PTH-stimulated, read-out: Osseous resorption T/C, D1-D4): 45%; activity at 5000 µM ([3]; Rattus norvegicus, 5 10^-3 (M), PTH-stimulated, read-out: Osseous resorption T/C, D4-D7): 6%; activity at 500 µM ([3]; Rattus norvegicus, 5 10^-4 (M), PTH-stimulated, read-out: Osseous resorption T/C, D1-D4): 101%; activity at 500 µM ([3]; Rattus norvegicus, 5 10^-4 (M), PTH-stimulated, read-out: Osseous resorption T/C, D4-D7): 84%; minimal effective concentration ([3]; Rattus norvegicus, in vitro, PTH-stimulated, read-out: Concentration from which anti-resorbing activity is statistically significant): 500 µM

B1: PTH: PTH, used to stimulate the resorption in all of the samples (protein, UniProt P01270 32-115, looked up)
Parathyroid hormone: SVSEIQLMHNLGKHLNSMERVEWLRKKLQDVHNFVALGAPLAPRDAGSQRPRKKEDNVLVESHEKSLGEADKADVNVLTKAKSQ
modifications: Parathyroid hormone
notes: PTH, used to stimulate the resorption in all of the samples
**Q.** Which results are given for B1?
**A.** Osseous resorption T/C, D1-D4 [3, 4]: 1.00; Osseous resorption T/C, D4-D7 [3, 4]: 1.00; Level of osseous resorption (%), D1-D4 ([3]; PTH alone, 9 determinations per point, (a) different from control at p < 0.05): 14.3 ± 3.4%; Level of osseous resorption (%), D1-D7 ([3]; PTH alone, 9 determinations per point, (b) different from control at p < 0.0001): 37.0 ± 7.6%
